# Source: publication PMC7442744 (Journal of the American Chemical Society, 2020)
# Target: human SQOR (sulfide quinone oxidoreductase) (Homo sapiens, UniProt Q9Y6N5)
# Experiment: absorption spectroscopy, charge transfer complex formation
# Format: binding
# Details: covalent; 5 mM sulfite, 5 μM native SQOR, 20 °C, 1 min
# human SQOR (sulfide quinone oxidoreductase), sequence (Q9Y6N5 42-450): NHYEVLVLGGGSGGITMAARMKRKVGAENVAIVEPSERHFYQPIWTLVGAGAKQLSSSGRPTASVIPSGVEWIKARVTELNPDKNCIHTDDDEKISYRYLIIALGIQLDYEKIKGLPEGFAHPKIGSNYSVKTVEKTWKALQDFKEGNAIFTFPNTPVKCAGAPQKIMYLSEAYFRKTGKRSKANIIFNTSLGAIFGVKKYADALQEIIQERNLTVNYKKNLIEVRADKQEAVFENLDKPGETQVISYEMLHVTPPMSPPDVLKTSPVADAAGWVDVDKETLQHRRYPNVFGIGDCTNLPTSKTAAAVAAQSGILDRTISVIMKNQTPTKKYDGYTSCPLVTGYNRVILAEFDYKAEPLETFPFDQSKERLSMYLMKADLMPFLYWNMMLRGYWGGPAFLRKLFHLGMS
smiles,measurement,value
O=S(O)O [sulfite],"absorption spectroscopy, charge transfer complex formation","sulfite treatment, which forms a strong CT complex when added to native SQOR"
